Assays:
DIPGX29 [1] = H3.3 K27M diffuse intrinsic pontine glioma line; experiment: maximal growth inhibition (yFin) relative to DMSO / staurosporine; higher = more efficacious
Outline: (§1)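 Treatment used a pin tool and a 10-point threefold dilution series, mean top concentration 35 μM, run in triplicate on patient-derived pHGG/DIPG cell lines and astrocyte controls in 1% Geltrex-coated 384-well plates. Plates were kept at 37 °C, 5% CO2 for 7 days (iAstro: 3 days). Log2-transformed CellTiter-Glo luminescence was scaled per plate to % activity between negative (solvent) and positive control wells and pooled before fitting. EC50 and maximal response (yFin) came from the three- or four-parameter log-logistic fit chosen by lowest AICc.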

DIPGX7 [2] = H3.3 K27M diffuse intrinsic pontine glioma line; experiment: as above
Outline: as §1

SUDIPGIV [3] = diffuse intrinsic pontine glioma line; experiment: as above
Outline: as §1

DIPGX37 [4] = H3.3 K27M diffuse intrinsic pontine glioma line; experiment: as above
Outline: as §1

SUDIPGXXI [5] = diffuse intrinsic pontine glioma line; experiment: as above
Outline: as §1

SUDIPGXIII [6] = diffuse intrinsic pontine glioma line; experiment: as above
Outline: as §1

HGGX42 [7] = H3.3 G34R paediatric high-grade glioma line; experiment: as above
Outline: as §1

SUDIPGXIX [8] = diffuse intrinsic pontine glioma line; experiment: as above
Outline: as §1

HGGX39 [9] = paediatric high-grade glioma line; experiment: as above
Outline: as §1

DIPGX9 [10] = diffuse intrinsic pontine glioma line; experiment: as above
Outline: as §1

DIPGX29 [11] = experiment: EC50 (inflection of fitted growth-inhibition curve) (log10 M)
Outline: as §1

DIPGX7 [12] = experiment: as above
Outline: as §1

SUDIPGIV [13] = experiment: as above
Outline: as §1

DIPGX37 [14] = experiment: as above
Outline: as §1

SUDIPGXXI [15] = experiment: as above
Outline: as §1

SUDIPGXIII [16] = experiment: as above
Outline: as §1

HGGX42 [17] = experiment: as above
Outline: as §1

SUDIPGXIX [18] = experiment: as above
Outline: as §1

HGGX39 [19] = experiment: as above
Outline: as §1

DIPGX9 [20] = experiment: as above
Outline: as §1

DIPGX29 [21] = experiment: area under dose-response curve of % growth inhibition (log2 RLU vs DMSO / staurosporine), 1e-11 to 1e-4 M (% x log10 M); higher = more growth inhibition
Outline: (§2)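 Patient-derived pHGG/DIPG cell lines and astrocytes were plated in 384-well plates coated with 1% Geltrex and treated in triplicate with a 10-point threefold dilution series whose mean top concentration was 35 μM, for 7 days (3 days for iAstro) at 37 °C and 5% CO2. CellTiter-Glo luminescence was log2-transformed and scaled on each plate to % activity between solvent and positive controls. Area under the curve came from the trapezoid rule applied to a fitted log-logistic curve, or to a smoothing spline where the sigmoid fit failed.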

HGGX2 [22] = paediatric high-grade glioma line; experiment: as above
Outline: as §2

SUDIPGVI [23] = diffuse intrinsic pontine glioma line; experiment: as above
Outline: as §2

DIPGX7 [24] = experiment: as above
Outline: as §2

HABS [25] = astrocyte control; experiment: as above
Outline: as §2

SUDIPGIV [26] = experiment: as above
Outline: as §2

DIPGX37 [27] = experiment: as above
Outline: as §2

SUDIPGXVII [28] = diffuse intrinsic pontine glioma line; experiment: as above
Outline: as §2

HGGX6 [29] = H3.3 G34R paediatric high-grade glioma line; experiment: as above
Outline: as §2

iAstro [30] = astrocyte control; experiment: as above
Outline: as §2

SUDIPGXXI [31] = experiment: as above
Outline: as §2

SUDIPGXIII [32] = experiment: as above
Outline: as §2

HGGX42 [33] = experiment: as above
Outline: as §2

SUDIPGXIX [34] = experiment: as above
Outline: as §2

HGGX39 [35] = experiment: as above
Outline: as §2

DIPGX9 [36] = experiment: as above
Outline: as §2

SUDIPGVI [37] = experiment: maximal growth inhibition (yFin) relative to DMSO / staurosporine; higher = more efficacious
Outline: as §1

SUDIPGXVII [38] = experiment: as above
Outline: as §1

HGGX6 [39] = experiment: as above
Outline: as §1

SUDIPGVI [40] = experiment: EC50 (inflection of fitted growth-inhibition curve) (log10 M)
Outline: as §1

SUDIPGXVII [41] = experiment: as above
Outline: as §1

HGGX6 [42] = experiment: as above
Outline: as §1

HGGX2 [43] = experiment: maximal growth inhibition (yFin) relative to DMSO / staurosporine; higher = more efficacious
Outline: as §1

HABS [44] = experiment: as above
Outline: as §1

iAstro [45] = experiment: as above
Outline: as §1

HGGX2 [46] = experiment: EC50 (inflection of fitted growth-inhibition curve) (log10 M)
Outline: as §1

HABS [47] = experiment: as above
Outline: as §1

iAstro [48] = experiment: as above
Outline: as §1

## Cn1cnc([N+](=O)[O-])c1Sc1ncnc2[nH]cnc12 [AZATHIOPRINE]
DIPGX29 [1]
  maximal growth inhibition: 55.9%
DIPGX7 [2]
  maximal growth inhibition: 32.3%
SUDIPGIV [3]
  maximal growth inhibition: 34%
DIPGX37 [4]
  maximal growth inhibition: 53.7%
SUDIPGXXI [5]
  maximal growth inhibition: 43.4%
SUDIPGXIII [6]
  maximal growth inhibition: 21%
HGGX42 [7]
  maximal growth inhibition: 23.2%
SUDIPGXIX [8]
  maximal growth inhibition: 25.4%
HGGX39 [9]
  maximal growth inhibition: 52.1%
DIPGX9 [10]
  maximal growth inhibition: 27.4%
DIPGX29 [11]
  EC50 (log10 M): -6.11
DIPGX7 [12]
  EC50 (log10 M): -5.08
SUDIPGIV [13]
  EC50 (log10 M): -5.75
DIPGX37 [14]
  EC50 (log10 M): -5.6
SUDIPGXXI [15]
  EC50 (log10 M): -6.73
SUDIPGXIII [16]
  EC50 (log10 M): -6.03
HGGX42 [17]
  EC50 (log10 M): -6.39
SUDIPGXIX [18]
  EC50 (log10 M): -6.06
HGGX39 [19]
  EC50 (log10 M): -5.65
DIPGX9 [20]
  EC50 (log10 M): -5.87
DIPGX29 [21]
  area under dose-response curve: 119
HGGX2 [22]
  area under dose-response curve: 49.3
SUDIPGVI [23]
  area under dose-response curve: 29
DIPGX7 [24]
  area under dose-response curve: 35.7
HABS [25]
  area under dose-response curve: 15.3
SUDIPGIV [26]
  area under dose-response curve: 60
DIPGX37 [27]
  area under dose-response curve: 87.5
SUDIPGXVII [28]
  area under dose-response curve: 37.4
HGGX6 [29]
  area under dose-response curve: 50.7
iAstro [30]
  area under dose-response curve: 6.8
SUDIPGXXI [31]
  area under dose-response curve: 119
SUDIPGXIII [32]
  area under dose-response curve: 38.7
HGGX42 [33]
  area under dose-response curve: 51
SUDIPGXIX [34]
  area under dose-response curve: 42.2
HGGX39 [35]
  area under dose-response curve: 80.7
DIPGX9 [36]
  area under dose-response curve: 52.8

## CC(C)C[C@H](NC(=O)[C@H](Cc1ccccc1)NC(=O)c1cnccn1)B(O)O [BORTEZOMIB]
SUDIPGVI [37]
  maximal growth inhibition: 95.6%
SUDIPGXVII [38]
  maximal growth inhibition: 91.2%
HGGX6 [39]
  maximal growth inhibition: 91.4%
SUDIPGXIII [6]
  maximal growth inhibition: 96.5%
SUDIPGVI [40]
  EC50 (log10 M): -9.92
SUDIPGXVII [41]
  EC50 (log10 M): -8.34
HGGX6 [42]
  EC50 (log10 M): -7.84
SUDIPGXIII [16]
  EC50 (log10 M): -9.99
DIPGX29 [21]
  area under dose-response curve: 287
HGGX2 [22]
  area under dose-response curve: 450
SUDIPGVI [23]
  area under dose-response curve: 499
DIPGX7 [24]
  area under dose-response curve: 575
HABS [25]
  area under dose-response curve: 506
SUDIPGIV [26]
  area under dose-response curve: 581
DIPGX37 [27]
  area under dose-response curve: 493
SUDIPGXVII [28]
  area under dose-response curve: 392
HGGX6 [29]
  area under dose-response curve: 347
iAstro [30]
  area under dose-response curve: 461
SUDIPGXXI [31]
  area under dose-response curve: 634
SUDIPGXIII [32]
  area under dose-response curve: 491
HGGX42 [33]
  area under dose-response curve: 312
SUDIPGXIX [34]
  area under dose-response curve: 568
HGGX39 [35]
  area under dose-response curve: 455
DIPGX9 [36]
  area under dose-response curve: 571

## CS[C@H]1SC[C@H]2C(=O)N(C)[C@@H](C(C)C)C(=O)OC[C@@H](NC(=O)c3cnc4ccccc4n3)C(=O)N[C@@H](C)C(=O)N(C)[C@@H]1C(=O)N(C)[C@@H](C(C)C)C(=O)OC[C@@H](NC(=O)c1cnc3ccccc3n1)C(=O)N[C@@H](C)C(=O)N2C [ECHINOMYCIN]
SUDIPGVI [37]
  maximal growth inhibition: 71%
SUDIPGXVII [38]
  maximal growth inhibition: 96.4%
HGGX6 [39]
  maximal growth inhibition: 75.4%
SUDIPGXIII [6]
  maximal growth inhibition: 70.4%
HGGX42 [7]
  maximal growth inhibition: 76.3%
SUDIPGVI [40]
  EC50 (log10 M): -10.8
SUDIPGXVII [41]
  EC50 (log10 M): -8.81
HGGX6 [42]
  EC50 (log10 M): -8.49
SUDIPGXIII [16]
  EC50 (log10 M): -8.75
HGGX42 [17]
  EC50 (log10 M): < -11
DIPGX29 [21]
  area under dose-response curve: 489
HGGX2 [22]
  area under dose-response curve: 383
SUDIPGVI [23]
  area under dose-response curve: 399
DIPGX7 [24]
  area under dose-response curve: 488
HABS [25]
  area under dose-response curve: 371
SUDIPGIV [26]
  area under dose-response curve: 505
DIPGX37 [27]
  area under dose-response curve: 508
SUDIPGXVII [28]
  area under dose-response curve: 425
HGGX6 [29]
  area under dose-response curve: 337
iAstro [30]
  area under dose-response curve: 139
SUDIPGXXI [31]
  area under dose-response curve: 577
SUDIPGXIII [32]
  area under dose-response curve: 335
HGGX42 [33]
  area under dose-response curve: 432
SUDIPGXIX [34]
  area under dose-response curve: 520
HGGX39 [35]
  area under dose-response curve: 507
DIPGX9 [36]
  area under dose-response curve: 510

## CO[C@H]1C[C@@H]2CC[C@@H](C)[C@@](O)(O2)C(=O)C(=O)N2CCCC[C@H]2C(=O)O[C@H]([C@H](C)C[C@@H]2CC[C@@H](OCCO)[C@H](OC)C2)CC(=O)[C@H](C)/C=C(\C)[C@@H](O)[C@@H](OC)C(=O)[C@H](C)C[C@H](C)/C=C/C=C/C=C/1C [EVEROLIMUS]
DIPGX29 [1]
  maximal growth inhibition: 107%
HGGX2 [43]
  maximal growth inhibition: 94.8%
DIPGX7 [2]
  maximal growth inhibition: 98.8%
HABS [44]
  maximal growth inhibition: 86.6%
SUDIPGIV [3]
  maximal growth inhibition: 87.7%
DIPGX37 [4]
  maximal growth inhibition: 100%
SUDIPGXVII [38]
  maximal growth inhibition: 73.8%
HGGX6 [39]
  maximal growth inhibition: 50%
iAstro [45]
  maximal growth inhibition: 85%
SUDIPGXIII [6]
  maximal growth inhibition: 85.2%
HGGX42 [7]
  maximal growth inhibition: 95.7%
SUDIPGXIX [8]
  maximal growth inhibition: 90.9%
HGGX39 [9]
  maximal growth inhibition: 97.2%
DIPGX29 [11]
  EC50 (log10 M): -4.57
HGGX2 [46]
  EC50 (log10 M): -4.67
DIPGX7 [12]
  EC50 (log10 M): -4.76
HABS [47]
  EC50 (log10 M): -4.63
SUDIPGIV [13]
  EC50 (log10 M): -4.85
DIPGX37 [14]
  EC50 (log10 M): -4.6
SUDIPGXVII [41]
  EC50 (log10 M): -4.83
HGGX6 [42]
  EC50 (log10 M): -4.78
iAstro [48]
  EC50 (log10 M): -4.83
SUDIPGXIII [16]
  EC50 (log10 M): -4.77
HGGX42 [17]
  EC50 (log10 M): -4.78
SUDIPGXIX [18]
  EC50 (log10 M): -4.79
HGGX39 [19]
  EC50 (log10 M): -4.56
DIPGX29 [21]
  area under dose-response curve: 95.9
HGGX2 [22]
  area under dose-response curve: 78.5
SUDIPGVI [23]
  area under dose-response curve: 113
DIPGX7 [24]
  area under dose-response curve: 75.4
HABS [25]
  area under dose-response curve: 54.8
SUDIPGIV [26]
  area under dose-response curve: 97.4
DIPGX37 [27]
  area under dose-response curve: 103
SUDIPGXVII [28]
  area under dose-response curve: 74.4
HGGX6 [29]
  area under dose-response curve: 62.9
iAstro [30]
  area under dose-response curve: 96.6
SUDIPGXXI [31]
  area under dose-response curve: 203
SUDIPGXIII [32]
  area under dose-response curve: 92.4
HGGX42 [33]
  area under dose-response curve: 107
SUDIPGXIX [34]
  area under dose-response curve: 72
HGGX39 [35]
  area under dose-response curve: 99.1
DIPGX9 [36]
  area under dose-response curve: 149
